Reference: patent US9908912B2, “Triclosan derivatives and uses thereof” (priority 2012, dated 2018)
In brackets after ≈: the same amount, converted by molar mass.

Columns and labels:
[1] = system: Kleb. pneumoniae ATCC 10031; test: MIC in Nutrient Broth No. 2; assay type: cell-based, Klebsiella pneumoniae; conditions: Nutrient Broth No. 2
Protocol: (§1) Bacteria species as indicated in Table 1 were incubated for approximately 24 hours at 37° C.
(§2) The tests were repeated with the addition of inducers. Methyl glycoside was the main inducer used, but other suitable inducers include isopropyl-β-D-thiogalactopyranoside, p-nitrophenyl-α-L-arabinopyranoside and p-nitrophenyl-β-D-xylopyranoside. Concentration of inducer in all cases was 100 μg/ml.

Ent. cloacae = test: MIC in Nutrient Agar; assay type: cell-based, Enterobacter cloacae; conditions: Nutrient Agar containing 0.1 μg/ml of inducer; 37° C., 24 hours
Protocol: (§3) The triclosan-glycosides were added to Nutrient Agar (Oxoid CM0003; Thermofisher Scientific) and organisms were transferred onto the plates surface using a multi-point inoculation device (Oxoid Cathra, Thermofisher Scientific). The latter is essentially a metal plate containing a number of needles. Each needle tip (usually 36 per plate) dips into an organism suspension (in phosphate buffered saline; PBS) and the needles are then moved over the agar plate and lowered onto its surface. In this way the growth of colonies of up to 36 different organisms can be observed on one plate.
(§4) Nutrient Agar No. 2 was prepared according to the manufacturers instructions, autoclaved and cooled to 50° C. Test compounds were then added as filter sterilised solutions (50:50 deionised water:ethanol), to give final concentrations from 256 μg/ml to 0 μg/ml in doubling dilutions. […] The mixtures were swirled then four plates (25 ml molten agar) were poured for each concentration. Plates were dried in a laminar flow cabinet then inoculated with overnight cultures of organisms that had been decimally diluted twice in sterile saline solution (approximately 10^7 cfu/ml) using a multi-point inoculator. Plates were then incubated at 37° C. for 24 hours. MICs were determined as the concentration at which no growth was observed.

[2] = system: Strep. pneumoniae ATCC 6305; test: MIC in Nutrient Broth No. 2; assay type: cell-based, Streptococcus pneumoniae; conditions: Nutrient Broth No. 2
Protocol: as §1, §2

Bacillus subtilis = test: MIC in Nutrient Agar; assay type: cell-based; conditions: Nutrient Agar containing 0.1 μg/ml of inducer; 37° C., 24 hours
Protocol: as §3, §4

Hafnia alvei = test: MIC in Nutrient Agar; assay type: cell-based; conditions: Nutrient Agar containing 0.1 μg/ml of inducer; 37° C., 24 hours
Protocol: as §3, §4

Salmonella = test: MIC in Nutrient Agar; assay type: cell-based; conditions: 11 strains; Nutrient Agar containing 0.1 μg/ml of inducer; 37° C., 24 hours
Protocol: as §3, §4

Bacillus cereus = test: MIC in Nutrient Agar; assay type: cell-based; conditions: Nutrient Agar containing 0.1 μg/ml of inducer; 37° C., 24 hours
Protocol: as §3, §4

Ps. aeruginosa = test: MIC in Nutrient Agar; assay type: cell-based; conditions: Nutrient Agar containing 0.1 μg/ml of inducer; 37° C., 24 hours
Protocol: as §3, §4

S. aureus = test: MIC in Nutrient Agar; assay type: cell-based, Staphylococcus aureus; conditions: 8 strains; Nutrient Agar containing 0.1 μg/ml of inducer; 37° C., 24 hours
Protocol: as §3, §4

S. saprophyticus = test: MIC in Nutrient Agar; assay type: cell-based, Staphylococcus saprophyticus; conditions: Nutrient Agar containing 0.1 μg/ml of inducer; 37° C., 24 hours
Protocol: as §3, §4

Strep. viridans OCC 234 = test: MIC in Nutrient Broth No. 2; assay type: cell-based, Streptococcus viridans; conditions: Nutrient Broth No. 2
Protocol: as §1, §2

E. hermanii ATCC 33650 = test: MIC in Nutrient Broth No. 2; assay type: cell-based, Escherichia hermanii; conditions: Nutrient Broth No. 2
Protocol: as §1, §2

Str. pyogenes = test: MIC in Nutrient Agar; assay type: cell-based, Streptococcus pyogenes; conditions: Nutrient Agar containing 0.1 μg/ml of inducer; 37° C., 24 hours
Protocol: as §3, §4

Staph. epidermidis = test: MIC in Nutrient Broth No. 2; assay type: cell-based, Staphylococcus epidermidis; conditions: 3 strains, Nutrient Broth No. 2
Protocol: as §1, §2

E. coli = test: MIC in Nutrient Agar; assay type: cell-based, Escherichia coli; conditions: 8 strains; Nutrient Agar containing 0.1 μg/ml of inducer; 37° C., 24 hours
Protocol: as §3, §4

Str. pneumoniae = test: MIC in Nutrient Agar; assay type: cell-based, Streptococcus pneumoniae; conditions: Nutrient Agar containing 0.1 μg/ml of inducer; 37° C., 24 hours
Protocol: as §3, §4

Ent. faecalis = test: MIC in Nutrient Agar; assay type: cell-based, Enterococcus faecalis; conditions: Nutrient Agar containing 0.1 μg/ml of inducer; 37° C., 24 hours
Protocol: as §3, §4

S. epidermidis = test: MIC in Nutrient Agar; assay type: cell-based, Staphylococcus epidermidis; conditions: 3 strains; Nutrient Agar containing 0.1 μg/ml of inducer; 37° C., 24 hours
Protocol: as §3, §4

Str. agalactiae = test: MIC in Nutrient Agar; assay type: cell-based, Streptococcus agalactiae; conditions: Nutrient Agar containing 0.1 μg/ml of inducer; 37° C., 24 hours
Protocol: as §3, §4

Ent. aerogenes = test: MIC in Nutrient Agar; assay type: cell-based, Enterobacter aerogenes; conditions: Nutrient Agar containing 0.1 μg/ml of inducer; 37° C., 24 hours
Protocol: as §3, §4

Cr. sakazakii = test: MIC in Nutrient Agar; assay type: cell-based, Cronobacter sakazakii; conditions: Nutrient Agar containing 0.1 μg/ml of inducer; 37° C., 24 hours
Protocol: as §3, §4

[3] = system: Staph. haemolyticus OCC 2223; test: MIC in Nutrient Broth No. 2; assay type: cell-based, Staphylococcus haemolyticus; conditions: Nutrient Broth No. 2
Protocol: as §1, §2

[4] = system: Strep. pyogenes ATCC 19615; test: MIC in Nutrient Broth No. 2; assay type: cell-based, Streptococcus pyogenes; conditions: Nutrient Broth No. 2
Protocol: as §1, §2

[5] = system: Strep. agalactiae OCC 182; test: MIC in Nutrient Broth No. 2; assay type: cell-based, Streptococcus agalactiae; conditions: Nutrient Broth No. 2
Protocol: as §1, §2

[6] = system: Staph. saprophyticus ATCC 15305; test: MIC in Nutrient Broth No. 2; assay type: cell-based, Staphylococcus saprophyticus; conditions: Nutrient Broth No. 2
Protocol: as §1, §2

Ser. marcescens = test: MIC in Nutrient Agar; assay type: cell-based, Serratia marcescens; conditions: Nutrient Agar containing 0.1 μg/ml of inducer; 37° C., 24 hours
Protocol: as §3, §4

E. hermanii = test: MIC in Nutrient Agar; assay type: cell-based, Escherichia hermanii; conditions: Nutrient Agar containing 0.1 μg/ml of inducer; 37° C., 24 hours
Protocol: as §3, §4

Str. viridans = test: MIC in Nutrient Agar; assay type: cell-based, Streptococcus viridans; conditions: Nutrient Agar containing 0.1 μg/ml of inducer; 37° C., 24 hours
Protocol: as §3, §4

[7] = system: Kleb. aerogenes NCTC 88167; test: MIC in Nutrient Broth No. 2; assay type: cell-based, Klebsiella aerogenes; conditions: Nutrient Broth No. 2
Protocol: as §1, §2

Staph. aureus = test: MIC in Nutrient Broth No. 2; assay type: cell-based, Staphylococcus aureus; conditions: 8 strains, Nutrient Broth No. 2
Protocol: as §1, §2

Ent. faecium = test: MIC in Nutrient Agar; assay type: cell-based, Enterococcus faecium; conditions: Nutrient Agar containing 0.1 μg/ml of inducer; 37° C., 24 hours
Protocol: as §3, §4

Kleb. aerogenes = test: MIC in Nutrient Agar; assay type: cell-based, Klebsiella aerogenes; conditions: Nutrient Agar containing 0.1 μg/ml of inducer; 37° C., 24 hours
Protocol: as §3, §4

[8] = system: Crono. sakazakii ATCC 29544; test: MIC in Nutrient Broth No. 2; assay type: cell-based, Cronobacter sakazakii; conditions: Nutrient Broth No. 2
Protocol: as §1, §2

OC[C@H]1O[C@H](Oc2cc(Cl)ccc2Oc2ccc(Cl)cc2Cl)[C@@H](O)[C@@H](O)[C@@H]1O [α-D-Mannoside, triclosan-α-D-mannopyranoside]
MIC ([1]; with inducer 100 μg/ml): 2 µg/mL (≈ 4.43 µM) | MIC ([1]; without inducer): 4 µg/mL (≈ 8.86 µM) | MIC (Ent. cloacae): 16 µg/mL (≈ 35.4 µM) | MIC ([2]; with inducer 100 μg/ml): 128 µg/mL (≈ 283 µM) | MIC ([2]; without inducer): 64 µg/mL (≈ 142 µM) | MIC (Bacillus subtilis): 256 µg/mL (≈ 567 µM) | MIC (Hafnia alvei): 4 µg/mL (≈ 8.86 µM) | MIC (Salmonella): 16 to 32 µg/mL | MIC (Bacillus cereus): 128 µg/mL (≈ 283 µM) | MIC (Ps. aeruginosa): >256 µg/mL | MIC (S. aureus): 4 to 8 µg/mL | MIC (S. saprophyticus): 32 µg/mL (≈ 70.8 µM) | MIC (Strep. viridans OCC 234; with inducer 100 μg/ml): 128 µg/mL (≈ 283 µM) | MIC (Strep. viridans OCC 234; without inducer): 128 µg/mL (≈ 283 µM) | MIC (E. hermanii ATCC 33650; with inducer 100 μg/ml): 8 µg/mL (≈ 17.7 µM) | MIC (E. hermanii ATCC 33650; without inducer): 16 µg/mL (≈ 35.4 µM) | MIC (Str. pyogenes): 64 µg/mL (≈ 142 µM) | MIC (Staph. epidermidis; with inducer 100 μg/ml): 4 to 8 µg/mL | MIC (Staph. epidermidis; without inducer): 4 to 8 µg/mL | MIC (E. coli): 8 to 64 µg/mL | MIC (Str. pneumoniae): 64 µg/mL (≈ 142 µM) | MIC (Ent. faecalis): 256 µg/mL (≈ 567 µM) | MIC (S. epidermidis): 8 µg/mL (≈ 17.7 µM) | MIC (Str. agalactiae): 128 µg/mL (≈ 283 µM) | MIC (Ent. aerogenes): 64 µg/mL (≈ 142 µM) | MIC (Cr. sakazakii): 64 µg/mL (≈ 142 µM) | MIC ([3]; with inducer 100 μg/ml): 8 µg/mL (≈ 17.7 µM) | MIC ([3]; without inducer): 8 µg/mL (≈ 17.7 µM) | MIC ([4]; with inducer 100 μg/ml): 32 µg/mL (≈ 70.8 µM) | MIC ([4]; without inducer): 32 µg/mL (≈ 70.8 µM) | MIC ([5]; with inducer 100 μg/ml): 128 µg/mL (≈ 283 µM) | MIC ([5]; without inducer): 128 µg/mL (≈ 283 µM) | MIC ([6]; with inducer 100 μg/ml): 32 µg/mL (≈ 70.8 µM) | MIC ([6]; without inducer): 32 µg/mL (≈ 70.8 µM) | MIC (Ser. marcescens): >256 µg/mL | MIC (E. hermanii): 16 µg/mL (≈ 35.4 µM) | MIC (Str. viridans): 128 µg/mL (≈ 283 µM) | MIC ([7]; with inducer 100 μg/ml): 32 µg/mL (≈ 70.8 µM) | MIC ([7]; without inducer): 32 µg/mL (≈ 70.8 µM) | MIC (Staph. aureus; with inducer 100 μg/ml): 2 to 8 µg/mL | MIC (Staph. aureus; without inducer): 2 to 8 µg/mL | MIC (Ent. faecium): 256 µg/mL (≈ 567 µM) | MIC (Kleb. aerogenes): 32 µg/mL (≈ 70.8 µM) | MIC ([8]; with inducer 100 μg/ml): 32 µg/mL (≈ 70.8 µM) | MIC ([8]; without inducer): 128 µg/mL (≈ 283 µM)
